Experimental data: a melting point compilation (Tetko et al.; mined from patent text by program, amines drawn as free bases though some values may be those of a salt)

Row | Structure (SMILES) | melting point [°C]
1 | CCOc1ccc(-c2nc(C3=CCN(C)CC3)cs2)cc1OCC | 81.2 to 83.6
2 | Cc1sc2ncc(C(=O)CC(O)c3ccccc3)n2c1C (stereo unspecified) | 113
3 | COC(=O)c1cc2c(C)ccc(C)c2n1OC | 90 to 91
4 | Cn1nc(C#N)c2ccccc21 | 73
5 | CCCCCCCCc1ccc(C(=O)C(O)c2ccccc2)cc1 (stereo unspecified) | 65 to 70
6 | CCOC(=O)C1=C(N)NC(N)=C(C(=O)OCC)C1c1ccc(SC)cc1 | 127
7 | CS(=O)(=O)Nc1ccc2nc(CCl)ccc2c1 | 160 to 162
8 | c1csc(-c2ccc(-c3cccs3)c3nsnc23)c1 | 121 to 122
9 | CCCOc1n[nH]c(=O)[nH]1 | 156
10 | NNc1ccc([N+](=O)[O-])cc1S(N)(=O)=O | 209 to 210
11 | N#Cc1nn(-c2c(Cl)cc(C(F)(F)F)cc2Cl)c(N)c1-c1ccsc1C(F)(F)F | 162
12 | Cc1cccc(C(Cl)=NNc2ccccc2)c1 | 66 to 67
13 | CCc1cc2c(cc1F)c(C#N)c(-c1ccc(S(=O)(=O)N[C@@H](C)C(F)(F)F)cn1)n2-c1ncccn1 | 195 to 198
14 | O=C(Nc1ccc2ccc(Cl)nc2n1)C1=CCC=CC1 | 210
15 | COc1cc2c(cc1C)CCN=C2C1(c2ccsc2)CC1 | 116 to 118
16 | C=CC[C@H](NS(=O)(=O)c1ccc(OC)cc1)C(=O)OC(C)(C)C | 58 to 59
17 | Nc1c(C(=O)O)c(=O)[nH]c2ccccc12 | > 250
18 | Cc1cc(C)c(NS(=O)(=O)c2cc(S(=O)(=O)Nc3c(C)cc(C)cc3C)c3cc(O)ccc3c2)c(C)c1 | 148 to 150
19 | CCCCNC(=O)NS(=O)(=O)c1ccc(CCNC(=O)N2CC(C)=C(C)C2=O)cc1 | 198 to 200
20 | Cc1cc2c(cc1C=O)C(C)(C)CCC2(C)C | 82.4 to 84.1
21 | Nc1ccc(OCC(=O)OCCO)cc1 | 104 to 106
22 | O=C1CCCc2cc(OCCCCl)ccc21 | 85 to 87

Row | Structure (SMILES) | melting point [°C]
23 | CCc1cccc2c(C(CO)NC=O)c[nH]c12 (stereo unspecified) | 195 to 197
24 | C[C@@H]1C[C@@H]([C@H](CC2CCCCC2)NC(=O)[C@H](Cc2cscn2)NC(=O)OC(C)(C)C)OC1=O | 118 to 120
25 | COC(=O)C=C1CCC(c2ccc(O)cc2)CC1 (stereo unspecified) | 151 to 152
26 | C[C@H](NS(=O)(=O)c1ccc2c(c1)Sc1ccccc1O2)C(=O)O | 75 to 85
27 | CCCCCCCCCCCCCN1CC(=O)C(C#N)=C1N | 214 to 215
28 | O=C(O)c1ccc2ccccn2c1=O | 235 to 240
29 | COC(=O)COc1ccc(Cl)cc1CC1CNC(=O)CN(S(=O)(=O)c2ccc(Cl)cc2)C1=O (stereo unspecified) | 138 to 140
30 | Cc1ccc(-c2nc3ccc(C)cn3c2CC(=O)O)cc1 | 228 to 230
31 | COc1cc2c(cc1OC)C(=O)NC(=O)C2 | 234 to 238
32 | Cc1c(C)c2c(c(C)c1NC(=O)CC(C)(C)C)C(c1cccc(C3OCCO3)c1)CO2 (stereo unspecified) | 168 to 169
33 | Cc1ccc(C(=O)Nc2cc3c(cc2N)C(C)(C)CCC3(C)C)cc1 | 180
34 | Cc1c(N2C[C@@H]3[C@@H](O)CCN3C2=O)ccc(C#N)c1Cl | 148 to 149
35 | O=c1[nH]c(=O)n(CCCCBr)c2ccccc12 | 152 to 153
36 | CN1C(=O)C(NC(=S)Nc2ccccc2)N=C(c2ccccc2)c2ccccc21 (stereo unspecified) | 209 to 211
37 | CN1CCN(c2nc3sc4c(NCCN5CCOCC5)ncnc4c3c3c2CCC(C)(C)C3)CC1 | 150 to 151
38 | CCCCCCCCCCCCOC(=O)CS(=O)(=O)Nc1c(C(C)C)cccc1C(C)C | 58 to 59
39 | COc1ccc2[nH]c(SCc3ncc(C)c(N4CCOCC4)c3Cl)nc2c1 | 162 to 164
40 | CC(C)(C)OC(=O)Nc1cc(N2CC3OC(C)(C)OC3C2)c(-c2ccc(F)cc2)cc1[N+](=O)[O-] (stereo unspecified) | 119
41 | O=C1CCC(c2ccc(C(F)(F)F)cc2)=NN1 | 177 to 178
42 | Cc1ccc(S(=O)(=O)N(C)c2ccc(Cl)cc2N=O)cc1 | 113 to 114
43 | Fc1ccc(CSc2nc3cnccc3[nH]2)cc1F | 147 to 149
44 | CCCOc1ccc(-c2ccc3c(c2)C(C)(C)CCC3(C)C)cc1-c1ccc(C(=O)O)cc1 | 199 to 204

Row | Structure (SMILES) | melting point [°C]
45 | O=C(O)CCCCCCCCCSc1ccccc1O | 58 to 59
46 | O=[N+]([O-])c1ccc(C=NCCc2cccs2)cc1 | 83.9 to 84.4
47 | CCOC(=O)c1c(N)[nH]c2cccc(Cl)c12 | 140 to 142
48 | COCC#CC1=CC(C)(C)Oc2c(OC)cc(Cc3cnc(N)nc3N)cc21 | 236 to 237
49 | CCOc1cc(C2c3cccc(C4CC4C(N)=O)c3C(=O)N2CCS(C)(=O)=O)ccc1O (stereo unspecified) | 296
50 | O=C1c2ccccc2C(O)N1CCCCSc1ccncc1 (stereo unspecified) | 144 to 145
51 | CCn1c(C#N)ccc1-c1ccc2c(c1)C(C)(C)OC(=O)N2 | 200 to 202
52 | Cc1cc(-c2nc3cccnn3c2-c2ccnc(N)c2)ccc1F | 179 to 180
53 | CNC(=O)CCC(O)c1ccccc1 (stereo unspecified) | 67 to 69
54 | O=C1NC(=O)c2cc(NC3CCCCC3)c(NC3CCCCC3)cc21 | 170 to 175
55 | CCOn1c(SC)n[nH]c1=O | 99
56 | CCCC(=O)NNC(=O)c1ccncc1 | 142
57 | CC(C)N1CC(c2nnc(Cc3ccc(F)cc3)o2)=C(O)C1=O | 204 to 206
58 | CCCCCCCCCCCCCCOc1ccc(CNC(C)=O)cc1 | 100 to 101
59 | COC(=O)CSCC1Cn2cc(C(=O)NCc3ccc(Cl)cc3)c(=O)c3cc(CN4CCOCC4)cc(c32)O1 (stereo unspecified) | 182 to 183
60 | CN(C)C1(c2ccccc2)CCC(CNC(=O)N2CCCC(c3c[nH]c4ccccc34)C2)CC1 (stereo unspecified) | 95 to 99
61 | CCCCNC(=O)NS(=O)(=O)C(C)=Cc1ccccc1 | 135 to 136
62 | Cc1cc(C)nc(Oc2ccc(-c3ccn(CC4CC4)c(=O)c3C#N)c(F)c2)c1 | 137
63 | COCOc1c(C)c(OC)c(OCOC)c(CCCCCc2c(OC)c(OCOC)c(C)c(OC)c2OCOC)c1OC | 83 to 84
64 | N=C(N)Nc1ncc(Cl)c2ccc(S(=O)(=O)N(CCOC3CCCCO3)C3(C(=O)O)CCCC3)cc12 (stereo unspecified) | 281 to 289
65 | CC(=O)N[C@@H](CSC(=O)C(C)(C)C)C(=O)NCCSC(=O)C(C)(C)C | 109 to 111
66 | Cn1c(=O)n(C(N)=O)c2ccccc21 | > 250

The remaining lines, values ahead:

Row | melting point [°C] | Structure (SMILES)
67 | 120 to 122 | COCn1nc(Nc2cnccn2)c2cc(-c3ncccc3Cl)cc(OCCc3ccccn3)c21
68 | 203 | c1ccc(COc2ccc3nc(-c4ccc(C56CC7CC(CC(C7)C5)C6)c(OCc5ccccc5)c4)[nH]c3c2)cc1
69 | 120 | CCOc1cc(C2=NN(Cc3ccc(N)cc3)C(=O)CC2)ccc1OC
70 | 229 to 231 | Cc1nc2c(O[C@@H]3c4ccccc4C[C@H]3O)cc(C(=O)O)cn2c1C (relative stereo)
71 | 212 to 214 | O=C(NC(=S)NC1CCN(Cc2ccc3ccccc3c2)CC1)c1ccccc1
72 | 194 to 196 | Oc1ccc2nc(-c3ccc(O)c4ccccc34)oc2c1
73 | 171 | O=C(NN=Cc1ccc2ccccc2n1)c1ccccc1
74 | 88 to 90 | CNCC(O)COc1cccc(Nc2cc(Nc3cccc(C)c3)ncn2)c1 (stereo unspecified)
75 | 126 to 128 | CCCCCCCC[C@H](C(=S)Nc1c(SC)ccc2ncccc12)c1ccccc1
76 | 105 to 108 | COc1ccc(-c2nnc(N3CCC(O)CC3)nc2-c2ccc(OC)cc2)cc1
77 | 135 to 137 | O=C(O)C(=O)CC(=O)c1cc(CCc2ccccc2)cn1Cc1ccc(F)cc1
78 | 157 to 160 | COc1ccc2c(=O)c(-c3ccc(C)cc3)c(SCc3ccncc3)oc2c1
79 | 162 to 163 | CCc1cnc2c(NC(=O)c3c(Cl)cccc3Cl)cccc2c1CC(=O)NCc1ccccn1
80 | 52 to 54 | O=[N+]([O-])c1ccc(F)cc1OCc1ccccc1
81 | 240 to 243 | CN(Cc1ccc(NC(=O)C2=Cc3cc(-c4ccc(OCC(N)=O)cc4)ccc3S(=O)(=O)CC2)cc1)C1CCOCC1
82 | 85 to 86 | Fc1cccc(CCc2nnc(-c3ccc4c(c3)CCO4)o2)c1
83 | 276 | CCCCc1cnc2ccccc2c1Nc1ccc(C(=O)O)cc1
84 | 197 to 198 | Brc1c(NC2=NCCN2)ccc2c1ncn2Cc1ccccc1

Row | melting point [°C] | Structure (SMILES)
85 | 83 to 85 | Clc1cc(-c2ccccc2)nc2sccc12
86 | 236 to 238 | NC(=O)c1ccc(CN2C(=O)C3(COc4cc5c(cc43)OCCO5)c3ccccc32)cc1 (stereo unspecified)
87 | 148 to 151 | O=C1c2ccccc2C(=O)N1CC1CC1c1cccc2nscc12 (stereo unspecified)
88 | 92 | CC(C)Cn1nc(-c2ccccc2)c(-c2ccccc2)c1CCl
89 | 235 to 237 | Nc1ncnc2c1c(-c1cc(O)cc(F)c1)nn2Cc1oc2ccccc2c(=O)c1-c1cccc(F)c1
90 | 175 to 177 | Cc1ccc(-c2nc(-c3ccc(C(=O)NCCCBr)cc3)cs2)cc1
91 | 125 | CCOC1=N[C@@H](C(C)C)C(=O)N[C@]1(C)Cc1ccccc1
92 | 175 to 180 | CS(=O)c1ccc2nc(NC(=N)N)nc(-c3ccccc3)c2c1 (stereo unspecified)
93 | 112 to 116 | COc1ccc(-c2cc(COS(C)(=O)=O)c(=O)n(CCCc3ccc(F)cc3)n2)cc1F
94 | 223 to 225 | COc1ccc(CNc2cc(Cn3c(Oc4cc(C)cc(C)c4)c(C(C)C)c(=O)[nH]c3=O)cc(Cl)n2)cc1
95 | 200 to 201 | NC(=O)C1CCCc2c1c1cc(OCCCP(=O)(O)O)ccc1n2Cc1ccccc1 (stereo unspecified)
96 | 129 to 132 | O=c1c2c(Cc3ccc(OC(F)(F)F)cc3)n[nH]c2c2cccnc2n1-c1cccc(OC(F)(F)F)c1
97 | 93 to 95 | CC(C)(NCCCn1ccnc1)c1ccc(-c2ccc(OCc3ccccc3)cc2)cc1
98 | 177 | O=C(O)[C@H]1O[C@H](c2ccccc2Cl)c2cc(Cl)ccc2N(Cc2ccccc2)C1=O (relative stereo)
99 | 205 to 207 | CC(=O)Nc1cccc(-c2ccnc3c(Cc4ccccc4)cnn23)c1
100 | 174 | C=CCn1cc(-c2ccccc2)c(=O)c(-c2ccccc2)c1
101 | 205 to 206 | CC(C)(C(=O)O)c1cn2nc(NCCCN3CCC(OC(c4ccccc4)c4ccccc4)CC3)ccc2n1
